Paper PMC6271078 (Molecules, 2014)
≈ marks a conversion by molar mass, not a printed value.

Key:
[1] = cited from earlier work
Aqueous solubility = assay type: physicochemical

Compound: CO[C@H]1C[C@@H]2CC[C@@H](C)[C@@](O)(O2)C(=O)C(=O)N2CCCC[C@H]2C(=O)O[C@H]([C@H](C)C[C@@H]2CC[C@@H](O)[C@H](OC)C2)CC(=O)[C@H](C)/C=C(\C)[C@@H](O)[C@@H](OC)C(=O)[C@H](C)C[C@H](C)/C=C/C=C/C=C/1C [Rapa, Rapamycin, reference compound]
- oral bioavailability [1]: 10%
- Times Increased of Aqueous Solubility (Comp. vs. Rapa) (Aqueous solubility; ratio of compound solubility to Rapa solubility): 1
- solubility (Aqueous solubility; water): 2.6 µg/mL (≈ 2.84 µM)
